Measured values taken from the supplement of paper PMC10307832.

What was measured:
Experiment in all cases: relative viability (nuclei count vs DMSO), 5 days (fraction); higher = more cells survive
[1] = compound: CC(=O)c1c(C)c2cnc(Nc3ccc(N4CCNCC4)cn3)nc2n(C2CCCC2)c1=O [Palbociclib] + CC1(C)CCC(c2ccc(Cl)cc2)=C(CN2CCN(c3ccc(C(=O)NS(=O)(=O)c4ccc(N[C@H](CCN5CCOCC5)CSc5ccccc5)c(S(=O)(=O)C(F)(F)F)c4)cc3)CC2)C1 [Navitoclax] (partner 0.5 µM)
Method in brief: (§1)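 For relative viability, nuclei counts in treated wells were divided by those in vehicle wells. Lung cancer cell lines had been pin-tool dosed in 1536-well plates the day after seeding and cultured for 5 days, then fixed and stained in one step (final 0.05% Triton X-100, 1% formaldehyde, 1 ug/ml Hoechst) and imaged at 4×. Doses were one drug alone or a fixed anchor-drug dose plus five library-drug doses (not always all listed) in √10 steps, and values are duplicate-plate medians.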

[2] = compound: CC(=O)c1c(C)c2cnc(Nc3ccc(N4CCNCC4)cn3)nc2n(C2CCCC2)c1=O [Palbociclib] + Cc1nc(NC(=O)N2CCC[C@H]2C(N)=O)sc1-c1ccnc(C(C)(C)C(F)(F)F)c1 [Alpelisib] (partner 2 µM)
Method in brief: as §1

[3] = compound: CC(=O)c1c(C)c2cnc(Nc3ccc(N4CCNCC4)cn3)nc2n(C2CCCC2)c1=O [Palbociclib] + O=C(CCCCCCC(=O)Nc1ccccc1)NO [Vorinostat] (partner 1 µM)
Method in brief: as §1

[4] = compound: CC(=O)c1c(C)c2cnc(Nc3ccc(N4CCNCC4)cn3)nc2n(C2CCCC2)c1=O [Palbociclib] + O=C(c1cc(Cc2n[nH]c(=O)c3ccccc23)ccc1F)N1CCN(C(=O)C2CC2)CC1 [Olaparib] (partner 8 µM)
Method in brief: as §1

Row | Cell Line | relative viability ([1]; first compound 0.01 µM) | relative viability ([1]; first compound 0.1 µM) | relative viability ([1]; first compound 0.3162 µM) | relative viability ([1]; first compound 1 µM) | relative viability ([2]; first compound 0.01 µM) | relative viability ([2]; first compound 0.1 µM) | relative viability ([2]; first compound 0.3162 µM) | relative viability ([2]; first compound 1 µM) | relative viability ([3]; first compound 0.01 µM) | relative viability ([3]; first compound 0.03162 µM) | relative viability ([3]; first compound 0.1 µM) | relative viability ([3]; first compound 0.3162 µM) | relative viability ([3]; first compound 1 µM) | relative viability ([4]; first compound 0.01 µM) | relative viability ([4]; first compound 0.03162 µM) | relative viability ([4]; first compound 0.1 µM) | relative viability ([4]; first compound 0.3162 µM) | relative viability ([4]; first compound 1 µM) | relative viability ([1]; first compound 0.03162 µM) | relative viability ([2]; first compound 0.03162 µM)
1 | NCI-H1355 | 0.943 | 0.772 | 0.755 | 0.597 | 0.823 | 0.797 | 0.779 | 0.501 | 0.619 | 0.578 | 0.548 | 0.629 | 0.465 | 0.796 | 0.734 | 0.673 | 0.65 | 0.621 |  | 
2 | CAL-12T | 1.23 | 0.896 | 0.848 | 0.767 | 1.11 | 0.84 | 0.652 | 0.603 | 0.781 | 0.747 | 0.595 | 0.581 | 0.505 | 0.667 | 0.675 | 0.577 | 0.531 | 0.505 | 1.01 | 1.05
3 | HCC-827 | 1.03 | 0.99 | 0.953 | 0.769 | 1.04 | 0.913 | 0.819 | 0.652 | 0.863 | 0.65 | 0.787 | 0.636 | 0.598 | 0.62 | 0.573 | 0.477 | 0.563 | 0.443 | 1.01 | 0.927
4 | SK-LU-1 | 0.938 | 0.725 | 0.539 | 0.733 | 1.02 | 0.581 | 0.599 | 0.464 | 0.805 | 0.748 | 0.617 | 0.529 | 0.436 | 0.51 | 0.425 | 0.428 | 0.371 | 0.263 | 0.757 | 0.921
5 | NCI-H2085 | 1.1 | 0.897 | 0.93 | 0.776 | 1.03 | 0.923 | 0.84 | 0.616 | 0.816 | 0.786 | 0.748 | 0.63 | 0.383 | 0.788 | 0.767 | 0.712 | 0.584 | 0.488 | 1.04 | 0.891
